The species named for assay [1] is Rattus norvegicus. In words: Effect on the wound healing in rats at 7th postoperative day by measuring tensile strength of skin strips from the wound segments. The format is functional.
The species named for assay [2] is Rattus norvegicus. Nature of the assay: Tested for its effect on the wound healing in rats at 7th postoperative day by measuring tensile strength of skin strips from the wound segments; value relative to control(100). It is filed as functional.

With `COCCOCOC(=O)[C@]12CC[C@@H](C)[C@H](C)C1C1=CCC3[C@@]4(C)C[C@@H](O)[C@H](O)[C@@](C)(CO)C4CC[C@@]3(C)[C@]1(C)CC2` (stereo not given in full), the Tensile strength in the assay filed under Rattus norvegicus [1] worked out at 398 g cm**-2. The compound also returned a Relative value in the assay filed under Rattus norvegicus [2] of 139.
Regarding `CCCCOC(C)OC(=O)[C@]12CC[C@@H](C)[C@H](C)C1C1=CCC3[C@@]4(C)C[C@@H](O)[C@H](O)[C@@](C)(CO)C4CC[C@@]3(C)[C@]1(C)CC2` (stereo not given in full), the Tensile strength in the assay listed under Rattus norvegicus [1] turned out to be 362 g cm**-2. Moreover, the Relative value in the assay filed under Rattus norvegicus [2] is 126.
For `C[C@@H]1CC[C@]2(C(=O)O)CC[C@]3(C)C(=CCC4[C@@]5(C)C[C@@H](O)[C@H](O)[C@@](C)(CO)C5CC[C@]43C)C2[C@H]1C` (stereo not given in full) the same measures were 418 g cm**-2 and 146.
In turn, `C[C@@H]1CC[C@]2(C(=O)OC3CCCCO3)CC[C@]3(C)C(=CCC4[C@@]5(C)C[C@@H](O)[C@H](O)[C@@](C)(CO)C5CC[C@]43C)C2[C@H]1C` (stereo not given in full) had a Tensile strength in the assay listed under Rattus norvegicus [1] of 481 g cm**-2. Moreover, the Relative value in the assay filed under Rattus norvegicus [2] was found to be 168.
For `COCOC(=O)[C@]12CC[C@@H](C)[C@H](C)C1C1=CCC3[C@@]4(C)C[C@@H](O)[C@H](O)[C@@](C)(CO)C4CC[C@@]3(C)[C@]1(C)CC2` (stereo not given in full), in the assay listed under Rattus norvegicus [1], the Tensile strength is on record as 404 g cm**-2. In the assay filed under Rattus norvegicus [2], this compound showed a Relative value of 141.
For `CC(=O)OC[C@@]1(C)C2CC[C@]3(C)C(CC=C4C5[C@@H](C)[C@H](C)CC[C@]5(C(=O)OC5CCCCO5)CC[C@]43C)[C@@]2(C)C[C@@H](OC(C)=O)[C@@H]1OC(C)=O` (stereo not given in full) the same measures were 393 g cm**-2 and 173.
In the assay filed under Rattus norvegicus [1], `CCOCOC(=O)[C@]12CC[C@@H](C)[C@H](C)C1C1=CCC3[C@@]4(C)C[C@@H](O)[C@H](O)[C@@](C)(CO)C4CC[C@@]3(C)[C@]1(C)CC2` (stereo not given in full) returned a Tensile strength of 476 g cm**-2. For the same compound, the Relative value in the assay filed under Rattus norvegicus [2] was determined as 166.
For the compound `COCCOCOC(=O)[C@]12CC[C@@H](C)[C@H](C)C1C1=CCC3[C@@]4(C)C[C@@H](OC(C)=O)[C@H](OC(C)=O)[C@@](C)(COC(C)=O)C4CC[C@@]3(C)[C@]1(C)CC2` (stereo not given in full), in the assay listed under Rattus norvegicus [1], the Tensile strength was found to be 320 g cm**-2. In addition, the Relative value in the assay listed under Rattus norvegicus [2] is recorded as 141.
Regarding `CCOCOC(=O)[C@]12CC[C@@H](C)[C@H](C)C1C1=CCC3[C@@]4(C)C[C@@H](OC(C)=O)[C@H](OC(C)=O)[C@@](C)(COC(C)=O)C4CC[C@@]3(C)[C@]1(C)CC2` (stereo not given in full), the Tensile strength in the assay listed under Rattus norvegicus [1] is reported as 487 g cm**-2. The Relative value in the assay listed under Rattus norvegicus [2] came to 215.
In the same order, the values of `CCOC(C)OC(=O)[C@]12CC[C@@H](C)[C@H](C)C1C1=CCC3[C@@]4(C)C[C@@H](O)[C@H](O)[C@@](C)(CO)C4CC[C@@]3(C)[C@]1(C)CC2` (stereo not given in full) are 387 g cm**-2 and 135.
The compound `C[C@@H]1CC[C@]2(C(=O)OCOCc3ccccc3)CC[C@]3(C)C(=CCC4[C@@]5(C)C[C@@H](O)[C@H](O)[C@@](C)(CO)C5CC[C@]43C)C2[C@H]1C` (stereo not given in full) yielded a Tensile strength in the assay listed under Rattus norvegicus [1] of 327 g cm**-2. The Relative value in the assay filed under Rattus norvegicus [2] amounted to 114.
`COCOC(=O)[C@]12CC[C@@H](C)[C@H](C)C1C1=CCC3[C@@]4(C)C[C@@H](OC(C)=O)[C@H](OC(C)=O)[C@@](C)(COC(C)=O)C4CC[C@@]3(C)[C@]1(C)CC2` (stereo not given in full): the Tensile strength in the assay filed under Rattus norvegicus [1] turned out to be 330 g cm**-2. For the same compound, the Relative value in the assay filed under Rattus norvegicus [2] is 145.
In the assay filed under Rattus norvegicus [1], `CC(=O)OC[C@@]1(C)C2CC[C@]3(C)C(CC=C4C5[C@@H](C)[C@H](C)CC[C@]5(C(=O)OC5CCCO5)CC[C@]43C)[C@@]2(C)C[C@@H](OC(C)=O)[C@@H]1OC(C)=O` (stereo not given in full) came in with a Tensile strength of 331 g cm**-2. The Relative value in the assay filed under Rattus norvegicus [2] came out at 145.
With `CCCCCCCCOCOC(=O)[C@]12CC[C@@H](C)[C@H](C)C1C1=CCC3[C@@]4(C)C[C@@H](OC(C)=O)[C@H](OC(C)=O)[C@@](C)(COC(C)=O)C4CC[C@@]3(C)[C@]1(C)CC2` (stereo not given in full), the Tensile strength in the assay filed under Rattus norvegicus [1] is 310 g cm**-2. The Relative value in the assay listed under Rattus norvegicus [2] is listed as 137.
In the assay listed under Rattus norvegicus [1], `CCCCCCCCOCOC(=O)[C@]12CC[C@@H](C)[C@H](C)C1C1=CCC3[C@@]4(C)C[C@@H](O)[C@H](O)[C@@](C)(CO)C4CC[C@@]3(C)[C@]1(C)CC2` (stereo not given in full) gave a Tensile strength of 468 g cm**-2. In the assay filed under Rattus norvegicus [2], this compound returned a Relative value of 163.

(Values after ChEMBL document CHEMBL1128947, “Asiaticoside mimetics as wound healing agent” (1996).)
